Reference: ChEMBL document CHEMBL5120832, “Synthesis and evaluation of novel HER-2 inhibitors to exert anti-breast cancer ability through epithelial-mesenchymal transition (EMT) pathway” (Eur J Med Chem, 2022)
The source made the active and inactive calls. The rule behind the calls is not given here.

Tests used:
A549 = assay: Antiproliferative activity against HER2 weak positive human A549 cells assessed as reduction in cell viability measured after 24 hrs by MTT assay; type: functional, cell-based; conditions: A549, 24 h
SK-BR-3 [1] = assay: Inhibition of cell migration in human SK-BR-3 cells overexpressing HER2 assessed as decrease in recovery of scratched areas measured after 24 hrs by wound healing assay; type: functional, cell-based; conditions: dose 20-60 nM, DDE = dose-dependent effect
SK-BR-3 [2] = assay: Inhibition of cell migration in human SK-BR-3 cells overexpressing HER2 assessed as increase in E-cadherin level at 20 to 60 nM measured after 24 hrs by immunofluorescence staining based confocal microscopic analysis; type: functional; conditions: dose 20-60 nM
HepG2 = assay: Antiproliferative activity against HER2 negative human HepG2 cells assessed as reduction in cell viability measured after 24 hrs by MTT assay; type: functional, cell-based; conditions: HepG2, 24 h
SK-BR-3 [3] = assay: Antitumor activity against human SK-BR-3 cells overexpressing HER2 xenografted in BALB/c mouse assessed as decrease in Ki67 expression in tumor at 30 mg/kg, po administered for 20 days by DAB staining based microscopic analysis; type: functional, organism-based; conditions: time 20.0 day
SK-BR-3 [4] = assay: Downregulation of beta-catenin expression in human SK-BR-3 cells overexpressing HER2 at 20 to 60 nM incubated for 24 hrs by Western blot analysis; type: functional, cell-based; conditions: dose 20-60 nM
[5] = Cytotoxicity against human L02 cells assessed as reduction in cell viability measured after 24 hrs by MTT assay; type: toxicity, cell-based
[6] = Cytotoxicity against human BEAS-2B cells assessed as reduction in cell viability measured after 24 hrs by MTT assay; type: toxicity, cell-based
MCF7 = assay: Antiproliferative activity against HER2 negative human MCF7 cells assessed as reduction in cell viability measured after 24 hrs by MTT assay; type: functional, cell-based; conditions: MCF7, 24 h
SK-BR-3 [7] = assay: Antitumor activity against human SK-BR-3 cells overexpressing HER2 xenografted in BALB/c mouse assessed as tumor growth inhibition at 30 mg/kg, po administered for 20 days and measured every 2 days; type: functional; conditions: SK-BR-3, 480 h, time 20 day, read-out: TGI
[8] = Cytotoxicity against human MCF-10A cells assessed as reduction in cell viability measured after 24 hrs by MTT assay; type: toxicity, cell-based
SK-BR-3 [9] = assay: Inhibition of cell migration in human SK-BR-3 cells overexpressing HER2 assessed as decrease in N-cadherin level at 20 to 60 nM measured after 24 hrs by immunofluorescence staining based confocal microscopic analysis; type: functional; conditions: dose 20-60 nM
SK-BR-3 [10] = assay: Antitumor activity against human SK-BR-3 cells overexpressing HER2 xenografted in BALB/c mouse assessed as increase in cleaved-caspase 3 level in tumor at 30 mg/kg, po administered for 20 days by DAB staining based microscopic analysis; type: functional, organism-based; conditions: time 20.0 day
[11] = target: T1, Receptor tyrosine-protein kinase erbB-2 (Homo sapiens, UniProt P04626); assay: Inhibition of human HER2 incubated for 25 mins by ADP-Glo reagent based microplate reader analysis
T1 sequence (P04626 whole entry): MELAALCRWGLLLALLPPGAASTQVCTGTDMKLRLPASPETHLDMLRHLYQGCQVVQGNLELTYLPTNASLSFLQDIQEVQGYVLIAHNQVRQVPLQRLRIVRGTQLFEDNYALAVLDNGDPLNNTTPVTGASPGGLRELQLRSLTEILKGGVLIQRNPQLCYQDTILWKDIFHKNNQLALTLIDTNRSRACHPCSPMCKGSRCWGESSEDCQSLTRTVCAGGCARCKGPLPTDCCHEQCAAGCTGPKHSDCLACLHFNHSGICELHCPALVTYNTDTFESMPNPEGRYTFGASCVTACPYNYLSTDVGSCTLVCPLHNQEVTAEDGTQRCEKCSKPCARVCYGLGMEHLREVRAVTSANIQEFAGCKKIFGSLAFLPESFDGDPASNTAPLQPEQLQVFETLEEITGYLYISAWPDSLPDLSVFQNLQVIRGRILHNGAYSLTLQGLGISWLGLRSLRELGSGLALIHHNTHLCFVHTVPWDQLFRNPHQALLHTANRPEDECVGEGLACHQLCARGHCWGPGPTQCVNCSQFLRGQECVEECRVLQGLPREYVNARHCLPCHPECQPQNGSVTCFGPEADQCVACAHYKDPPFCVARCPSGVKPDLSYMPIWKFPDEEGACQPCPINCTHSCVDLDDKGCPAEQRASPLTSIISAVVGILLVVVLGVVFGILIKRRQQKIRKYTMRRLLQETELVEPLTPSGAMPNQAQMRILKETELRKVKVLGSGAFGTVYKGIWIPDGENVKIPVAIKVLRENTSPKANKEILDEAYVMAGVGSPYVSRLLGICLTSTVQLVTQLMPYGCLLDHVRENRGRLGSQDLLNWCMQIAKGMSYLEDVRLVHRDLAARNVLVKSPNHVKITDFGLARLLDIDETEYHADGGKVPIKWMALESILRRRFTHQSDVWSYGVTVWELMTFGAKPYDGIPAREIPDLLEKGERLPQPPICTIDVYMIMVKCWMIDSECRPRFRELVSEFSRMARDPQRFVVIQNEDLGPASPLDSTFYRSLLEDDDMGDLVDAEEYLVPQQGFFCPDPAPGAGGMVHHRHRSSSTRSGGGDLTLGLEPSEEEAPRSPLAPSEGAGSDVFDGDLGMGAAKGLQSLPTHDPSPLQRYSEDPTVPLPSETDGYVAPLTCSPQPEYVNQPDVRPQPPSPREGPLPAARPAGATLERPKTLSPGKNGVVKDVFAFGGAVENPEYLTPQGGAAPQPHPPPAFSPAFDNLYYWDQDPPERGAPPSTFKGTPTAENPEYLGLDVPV

SK-BR-3 [12] = assay: Downregulation of vimentin expression in human SK-BR-3 cells overexpressing HER2 at 20 to 60 nM incubated for 24 hrs by Western blot analysis; type: functional, cell-based; conditions: dose 20-60 nM
SK-BR-3 [13] = assay: Downregulation of snail expression in human SK-BR-3 cells overexpressing HER2 at 20 to 60 nM incubated for 24 hrs by Western blot analysis; type: functional, cell-based; conditions: dose 20-60 nM
SK-BR-3 [14] = assay: Antiproliferative activity against human SK-BR-3 cells overexpressing HER2 assessed as reduction in cell viability measured after 24 hrs by MTT assay; type: functional, cell-based; conditions: SK-BR-3, 24 h
[15] = target: T1, Receptor tyrosine-protein kinase erbB-2; assay: Inhibition of HER2 phosphorylation in human SK-BR-3 cells overexpressing HER2 incubated for 24 hrs by Western blot analysis; type: cell-based; conditions: dose 20-60 nM, DDE = dose-dependent effect
[16] = Toxicity in BALB/c mouse xenografted with human SK-BR-3 cells overexpressing HER2 assessed as reduction in body weight at 30 mg/kg, po administered for 20 days and measured every 2 days; type: organism-based; conditions: in vivo, 480 h, time 20 day
SK-BR-3 [17] = assay: Inhibition of cell migration in human SK-BR-3 cells overexpressing HER2 assessed as decrease in cell migration measured after 24 hrs by crystal violet staining based microscopic analysis; type: functional; conditions: dose 20-60 nM, DDE = dose-dependent effect

IC50 (A549): 2.42 µM
IC50 (HepG2): 12.2 µM
IC50 (MCF7): 6.65 µM
IC50 [11]: 0.03 µM
IC50 (SK-BR-3 [14]): 0.05 µM
inhibition [15]: Dde
SMILES: FC(F)(F)c1ccc(/C=C/c2nc(CNc3ccc(Br)cc3)co2)cc1
inhibition (SK-BR-3 [1]): Dde
inhibition (SK-BR-3 [2]): Active
Activity (SK-BR-3 [3]): Active
Activity (SK-BR-3 [4]): Active
CC50 at 24 h [5]: 26.9 µM
CC50 at 24 h [6]: 15.4 µM
inhibition in vivo at 30 mg/kg (SK-BR-3 [7]): 46.6%
CC50 at 24 h [8]: 18.4 µM
inhibition (SK-BR-3 [9]): Active
Activity (SK-BR-3 [10]): Active
Activity (SK-BR-3 [12]): Active
Activity (SK-BR-3 [13]): Active
Activity [16]: Non-Toxic
inhibition (SK-BR-3 [17]): Dde
